Columns and labels:
[1] = Percent encapsulation of mRNA in lipid nanoparticles (Quant-iT Ribogreen); assay type: physicochemical; settings: Table 2; leptin mRNA in LNP with the cationic lipid
Method: All equipment and disposable supplies are certified free of RNase activity by the manufacturer or rendered RNase free by use of the RNaseZap reagent (LifeTechnologies). mRNA is encapsulated at a cationic lipid amine to mRNA phosphate (N:P) molar ratio of 4:1. Lipids (cationic lipid, DSPC, cholesterol and lipidated PEG or stealth lipid) are dissolved in ethanol. The molar ratios are 40:10:38:2, respectively. The mixture is sonicated briefly, then gently agitated for 5 minutes and then maintained at 37° C. until use. mRNA is exchanged into citrate buffer pH 5.8-6.0 by use of Amicon Ultra-15 centrifugal concentrators, and the final concentration is adjusted to 0.5 mg/ml and held at 37° C. until use. An equal volume of lipids in ethanol, mRNA in citrate buffer, and citrate buffer alone are drawn into disposable syringes. Tubing leading from syringes containing lipids and mRNA are attached to the T junction, and tubing leading from the syringe containing citrate buffer alone is paired with the tubing exiting the T-junction over a collection vessel containing a stir bar on an active stir plate. Syringes are placed in a syringe pump set to expel contents at a flow rate of 1 ml per minute.
The pump is activated, and the collected mRNA in lipid nanoparticles is transferred to SnakeSkin dialysis tubing (10,000 MWCO, Thermo Scientific). Material is dialyzed against RNAse- and pyrogen-free 1× phosphate buffered saline overnight at 4° C.
Percent encapsulation of mRNA in lipid nanoparticles is determined using the Quant-iT Ribogreen RNA Assay kit (Life Technologies). The LNP-mRNA suspension is assayed in buffer (mRNA outside the particle), and buffer plus Triton X-100 detergent (total mRNA). The difference calculated is the mRNA inside the particle. Prepare a 1000 ng/mL stock from the RNA provided in the kit and use this to generate a standard curve (0 ng/ml, 15.63-1000 ng/ml) in TE and TE+0.75% Triton X-100. Prepare LNP-mRNA samples in TE buffer and TE buffer +0.75% Triton X-100 with appropriate dilution so that reading is in the range of standard curve (400-2,000 fold). In a 384-well plate (Costar non-treated #3573) add 0.04 ml of standard (in duplicate) or sample (in triplicate) per well. Dilute Ribogreen reagent 240-fold in TE buffer and add 0.06 ml per well. Mix contents of wells and measure fluorescence (excitation=480 nm, emission=520 nm). Subtract background values (no RNA) from standard and test sample values and determine the concentrations of RNA in the samples using the standard curves. Determine the percent encapsulation of the sample by dividing the difference in concentrations between sample+triton and sample in buffer alone by the sample+triton concentration.

[2] = siRNA encapsulation in lipid nanoparticles (SYBR Gold); assay type: physicochemical; settings: Table 2; FVII siRNA in LNP with the cationic lipid
Method: The lipid nanoparticles (LNPs) were formed by mixing equal volumes of lipids dissolved in alcohol with siRNA dissolved in a citrate buffer by an impinging jet process. The lipid solution contains a cationic lipid compound of the invention, a helper lipid (cholesterol), an optional neutral lipid (DSPC) and a PEG (PEG) lipid at a concentration of 8-16 mg/mL with a target of 12 mg/mL in an alcohol. The siRNA to total lipid ratio is approximately 0.05 (wt/wt). Where a LNP formulation contains four lipid components, the molar ratios of the lipids ranges from 20 to 70 mole percent for the cationic lipid with a target of 40-60, the mole percent of helper lipid ranges from 20 to 70 with a target of 30 to 50, the mole percent of neutral lipid ranges from 0-30, the mole percent of PEG lipid has a range from 1 to 6 with a target of 2 to 5. The concentration of siRNA solution ranges from 0.7 to 1.0 mg/mL with a target of 0.8 to 0.9 mg/mL in a sodium citrate: sodium chloride buffer pH 4-6, with a target of 4.5-5.5. The LNPs are formed by mixing equal volumes of lipid solution in ethanol with siRNA dissolved in a citrate buffer by an impinging jet process through a mixing device with ID ranging from 0.25 to 2.0 mm at a flow rate from 10 to 640 mL/min. The mixed LNP solution is held at room temperature for 0-24 hrs prior to a dilution step. The solution is then concentrated and diafiltered with suitable buffer by ultrafiltration or dialysis process using membranes with a MW cutoff from 30 to 500 KD. The final product is sterile filtered and stored at 4° C.
The lipid nanoparticles (LNPs) were formed by mixing equal volumes of lipids dissolved in alcohol with siRNA dissolved in a citrate buffer by an impinging jet process. The lipid solution contains a cationic lipid compound of the invention, a helper lipid (cholesterol), an optional neutral lipid (DSPC) and a stealth lipid (5010, S024, S027, or S031) at a concentration of 8-16 mg/mL with a target of 12 mg/mL in an alcohol. The siRNA to total lipid ratio is approximately 0.05 (wt/wt). Where a LNP formulation contains four lipid components, the molar ratios of the lipids ranges from 20 to 70 mole percent for the cationic lipid with a target of 40-60, the mole percent of helper lipid ranges from 20 to 70 with a target of 30 to 50, the mole percent of neutral lipid ranges from 0-30, the mole percent of PEG lipid has a range from 1 to 6 with a target of 2 to 5. The concentration of siRNA solution ranges from 0.7 to 1.0 mg/mL with a target of 0.8 to 0.9 mg/mL in a sodium citrate: sodium chloride buffer pH 4-6, with a target of 4.5-5.5. The LNPs are formed by mixing equal volumes of lipid solution in ethanol with siRNA dissolved in a citrate buffer by an impinging jet process through a mixing device with ID ranging from 0.25 to 2.0 mm at a flow rate from 10 to 640 mL/min. The mixed LNP solution is held at room temperature for 0-24 hrs prior to a dilution step. The solution is then concentrated and diafiltered with suitable buffer by ultrafiltration process using membranes with a MW cutoff from 30 to 500 KD. The final product is sterile filtered and stored at 4° C.
SYBR Gold flourescence reagent is used for the determination of siRNA encapsulation in the DLP's. DLP's with and without triton x-100 are used to determine the free siRNA and total siRNA amounts. DLP's samples with and without triton X-100 were excited at 485 nm and flourescence emission is measured at 530 nm. Encapsulation efficiency is calculated based on the following formula: Encapsulation efficiency:[([…])/(total siRNA concentration)]×100% Encapsulation Data

| Structure (SMILES) | % encapsulation mRNA Leptin [1] [%] | % encapsulation siRNA FVII [2] [%] |
| --- | --- | --- |
| CCCCCCCCCCCCCC(=O)OCC(COC(=O)CCCCCCCCCCCCC)OC(=O)CCC(CCCCCCCCCCCC)OC(=O)OCCCN(CC)CC (stereo not shown) [Example 84, 2-((4-(((3-(diethylamino)propoxy)carbonyl)oxy)hexadecanoyl)oxy)propane-1,3-diyl ditetradecanoate] | 83.1 | 77.5 |
| CCCCCCCCCCCCC(CCOC(=O)CCCCCCC(OCC(CCC)CCC)OCC(CCC)CCC)OC(=O)OCCCN(C)C (stereo not shown) [Example 23, 3-(((3-(dimethylamino)propoxy)carbonyl)oxy)pentadecyl 8,8-bis((2-propylpentyl)oxy)octanoate] | 98.0 | 92.0 |
| CCCCC/C=C\C/C=C\CCCCCCCC(=O)OCCC(CCCCCCCCCCCC)OC(=O)OCCCN(C)CC (stereo not shown) [Example 45, (9Z,12Z)-3-(((3-(ethyl(methyl)amino)propoxy)carbonyl)oxy)pentadecyl octadeca-9,12-dienoate] | 88.2 | 86.4 |
| CCCCC/C=C\C/C=C\CCCCCCCC(=O)OCCN(CCOC(=O)CCCCCCC/C=C\C/C=C\CCCCC)C(=O)CCC(CCCCCCCCCCCC)OC(=O)OCCCN(CC)CC (stereo not shown) [Example 103, (9Z,12Z)-10-dodecyl-3-ethyl-14-(2-((9Z,12Z)-octadeca-9,12-dienoyloxy)ethyl)-8,13-dioxo-7,9-dioxa-3,14-diazahexadecan-16-yl octadeca-9,12-dienoate] | 72.5 | 83.2 |
| CCCCCCCCCCCCC(CCC(=O)OC(COC(=O)CCCCCCCCCCC)COC(=O)CCCCCCCCCCC)OC(=O)OCCCN(CC)CC (stereo not shown) [Example 88, 2-((4-(((3-(diethylamino)propoxy)carbonyl)oxy)hexadecanoyl)oxy)propane-1,3-diyl didodecanoate] | 39.2 | 77.4 |
| CCCCCCCCCCCCC(CCOC(=O)CCCCCCC(COC(=O)CCCCCCC)COC(=O)CCCCCCC)OC(=O)OCCCN(CC)CC (stereo not shown) [Example 9, 2-(10-dodecyl-3-ethyl-8,14-dioxo-7,9,13-trioxa-3-azaicosan-20-yl)propane-1,3-diyl dioctanoate] | 96.6 | 91.0 |
| CCCCCCCCCCCCC(CCOC(=O)CCC(OCC(CCC)CCC)OCC(CCC)CCC)OC(=O)OCCCN(CC)CC (stereo not shown) [Example 13, 3-(((3-(diethylamino)propoxy)carbonyl)oxy)pentadecyl 4,4-bis((2-propylpentyl)oxy)butanoate] | 81.1 | 90.3 |
| CCCCCCCCCCCCC(CCOC(=O)CCCCCCC(OCC(CCC)CCC)OCC(CCC)CCC)OC(=O)OCCCN(CC)CC (stereo not shown) [Example 21, 3-(((3-(diethylamino)propoxy)carbonyl)oxy)pentadecyl 8,8-bis((2-propylpentyl)oxy)octanoate] | 98.2 | 91.2 |
| CCCCCCCCCCCCC(CCOC(=O)CCCCC(OCCCCCC)OCCCCCC)OC(=O)OCCCN(CC)CC (stereo not shown) [Example 17, 3-(((3-(diethylamino)propoxy)carbonyl)oxy)pentadecyl 6,6-bis(hexyloxy)hexanoate] | 84.6 | 88.3 |
| CCCCCCCCCCCCC(CCOC(=O)CCC(OCC(CCC)CCC)OCC(CCC)CCC)OC(=O)OCCCN(C)C (stereo not shown) [Example 15, 3-(((3-(dimethylamino)propoxy)carbonyl)oxy)pentadecyl 4,4-bis((2-propylpentyl)oxy)butanoate] | 98.9 | 91.0 |
| CCCCCCCCCCCCC(CCOC(=O)CCCCCCC(OCC(CCC)CCC)OCC(CCC)CCC)OC(=O)OCCCN(C)CC (stereo not shown) [Example 22, 3-(((3-(ethyl(methyl)amino)propoxy)carbonyl)oxy)pentadecyl 8,8-bis((2-propylpentyl)oxy)octanoate] | 99.2 | 91.7 |

— patent US11013696B2, “Lipids and lipid compositions for the delivery of active agents” (Novartis AG, priority 2013, dated 2021)
